This is an account of results in ChEMBL document CHEMBL4706731, “Semisynthetic Derivatives of the Verticillin Class of Natural Products through Acylation of the C11 Hydroxy Group” (ACS Med Chem Lett, 2021).

What all share (type): functional, cell-based
One assay deals with MDA-MB-231. The experiment in a line: Cytotoxicity against human MDA-MB-231 cells assessed as inhibition of cell proliferation measured after 72 hrs by CellTiter 96 AQueous One Solution Cell Proliferation assay. To be noted: MDA-MB-231, 72 h.
For another assay, the system named is OVCAR-3. Put plainly: Cytotoxicity against human OVCAR-3 cells assessed as inhibition of cell proliferation measured after 72 hrs by CellTiter 96 AQueous One Solution Cell Proliferation assay. The conditions noted are these: OVCAR-3, 72 h.
For a further assay, the system named is MDA-MB-435. The experiment in a line: Cytotoxicity against human MDA-MB-435 cells assessed as inhibition of cell proliferation measured after 72 hrs by CellTiter 96 AQueous One Solution Cell Proliferation assay. The conditions noted are these: MDA-MB-435, 72 h.

With `CN1C(=O)[C@]23SS[C@@]1(C)C(=O)N2[C@H]1Nc2ccccc2[C@@]1([C@@]12c4ccccc4N[C@@H]1N1C(=O)[C@]4(C)SS[C@]1(C(=O)N4C)[C@H]2O)[C@@H]3O`, the figures for the half-maximal inhibitory concentration (IC50) in the assay with MDA-MB-231, in the assay with OVCAR-3 and with MDA-MB-435 were 23 nM, 36 nM and 18 nM, respectively.
In the same order, the values of `CC[C@@]12SS[C@]3(C(=O)N1C)[C@@H](O)[C@]1([C@@]45c6ccccc6N[C@@H]4N4C(=O)[C@]6(CC)SS[C@]4(C(=O)N6C)[C@H]5O)c4ccccc4N[C@@H]1N3C2=O` are 31 nM, 229 nM and 44 nM.
In the same order, the values of `CC[C@@]12SS[C@]3(C(=O)N1C)[C@@H](O)[C@]1([C@@]45c6ccccc6N[C@@H]4N4C(=O)[C@]6(CC)SS[C@]4(C(=O)N6C)[C@H]5OS(=O)(=O)c4ccc(F)cc4)c4ccccc4N[C@@H]1N3C2=O` are 49 nM, 79 nM and 31 nM.
In the same order, the values of `CN1C(=O)[C@]23SS[C@@]1(C)C(=O)N2[C@H]1Nc2ccccc2[C@@]1([C@@]12c4ccccc4N[C@@H]1N1C(=O)[C@]4(C)SS[C@]1(C(=O)N4C)[C@H]2OC(=O)CCC(=O)O)[C@@H]3O` are 12 nM, 33 nM and 9 nM.
With `CC[C@@]12SS[C@]3(C(=O)N1C)[C@@H](O)[C@]1([C@@]45c6ccccc6N[C@@H]4N4C(=O)[C@]6(CC)SS[C@]4(C(=O)N6C)[C@H]5OC(=O)C4CC4)c4ccccc4N[C@@H]1N3C2=O`, the half-inhibitory concentration (IC50) in the assay with MDA-MB-231 turned out to be 12 nM; in the assay with OVCAR-3, 105 nM; in the assay on MDA-MB-435 it was 24 nM.
On the same counts, the results for `CC[C@@]12SS[C@]3(C(=O)N1C)[C@@H](O)[C@]1([C@@]45c6ccccc6N[C@@H]4N4C(=O)[C@]6(CC)SS[C@]4(C(=O)N6C)[C@H]5OC(=O)C(C)(C)C)c4ccccc4N[C@@H]1N3C2=O` are 20 nM, 72 nM and 21 nM.
On the same counts, the results for `CCCC(=O)O[C@H]1[C@]2([C@@]34c5ccccc5N[C@@H]3N3C(=O)[C@]5(CC)SS[C@]3(C(=O)N5C)[C@H]4O)c3ccccc3N[C@@H]2N2C(=O)[C@]3(CC)SS[C@]12C(=O)N3C` are 17 nM, 25 nM and 19 nM.
In the same order, the values of `CC[C@@]12SS[C@]3(C(=O)N1C)[C@@H](O)[C@]1([C@@]45c6ccccc6N[C@@H]4N4C(=O)[C@]6(CC)SS[C@]4(C(=O)N6C)[C@H]5OC(=O)CCC(=O)O)c4ccccc4N[C@@H]1N3C2=O` are 13 nM, 133 nM and 21 nM.
As to `CC[C@@]12SS[C@]3(C(=O)N1C)[C@@H](O)[C@]1([C@@]45c6ccccc6N[C@@H]4N4C(=O)[C@]6(CC)SS[C@]4(C(=O)N6C)[C@H]5OC(=O)N(C)C)c4ccccc4N[C@@H]1N3C2=O`, the IC50 in the assay with MDA-MB-231 came to 12 nM; with OVCAR-3, 19 nM; in the assay on MDA-MB-435, 9 nM.
In the same order, the values of `CC[C@@]12SS[C@]3(C(=O)N1C)[C@@H](O)[C@]1([C@@]45c6ccccc6N[C@@H]4N4C(=O)[C@]6(CC)SS[C@]4(C(=O)N6C)[C@H]5OC(C)=O)c4ccccc4N[C@@H]1N3C2=O` are 21 nM, 96 nM and 41 nM.
`CCOC(=O)O[C@H]1[C@]2([C@@]34c5ccccc5N[C@@H]3N3C(=O)[C@]5(CC)SS[C@]3(C(=O)N5C)[C@H]4O)c3ccccc3N[C@@H]2N2C(=O)[C@]3(CC)SS[C@]12C(=O)N3C`: the IC50 worked out at 7 nM with MDA-MB-231, 137 nM with OVCAR-3 and 11 nM in the assay on MDA-MB-435.
On the same counts, the results for `CC[C@@]12SS[C@]3(C(=O)N1C)[C@@H](O)[C@]1([C@@]45c6ccccc6N[C@@H]4N4C(=O)[C@]6(CC)SS[C@]4(C(=O)N6C)[C@H]5OC(=O)NC)c4ccccc4N[C@@H]1N3C2=O` are 21 nM, 68 nM and 22 nM.
`CC(=O)O[C@H]1C(=O)[C@@]2(C)[C@H]([C@H](OC(=O)c3ccccc3)[C@]3(O)C[C@H](OC(=O)[C@H](O)[C@@H](NC(=O)c4ccccc4)c4ccccc4)C(C)=C1C3(C)C)[C@]1(OC(C)=O)CO[C@@H]1C[C@@H]2O` [PACLITAXEL]: the figures for the concentration for half-maximal inhibition (IC50) in the assay with MDA-MB-231, in the assay with OVCAR-3 and with MDA-MB-435 were 0.6 nM, 1.8 nM and 0.3 nM, respectively.

One may read the IC50 as the concentration at which inhibition is half-maximal.
